Inhibition data for 26 compounds are collected here from patent publication US10358436B2, “Kinase inhibitors and method of treating cancer” (University Health Network, priority 2010, dated 2019).

Where a name gives a salt, the structure may show the parent alone.

The experiment concerns the target Aurora A (Homo sapiens (Human), UniProt O14965). Put plainly: Aurora A inhibition assay (Z-Lyte). Type of experiment: biochemical.

Sequence of Aurora A (O14965 whole entry): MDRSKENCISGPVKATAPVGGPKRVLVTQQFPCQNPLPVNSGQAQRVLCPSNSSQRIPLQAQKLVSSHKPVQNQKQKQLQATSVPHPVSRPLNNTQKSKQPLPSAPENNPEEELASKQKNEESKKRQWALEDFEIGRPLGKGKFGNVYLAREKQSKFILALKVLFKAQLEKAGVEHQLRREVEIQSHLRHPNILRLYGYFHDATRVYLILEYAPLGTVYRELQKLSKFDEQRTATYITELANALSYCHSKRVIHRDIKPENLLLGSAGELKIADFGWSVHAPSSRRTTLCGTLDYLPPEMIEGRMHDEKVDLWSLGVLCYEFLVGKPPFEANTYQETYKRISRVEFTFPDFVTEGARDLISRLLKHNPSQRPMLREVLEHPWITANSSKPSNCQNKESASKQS

With `COc1ccc2c(c1)[C@]1(C[C@H]1c1ccc3c(/C=C/c4ccc(N5CCN(C(C)C)CC5)cc4)n[nH]c3c1)C(=O)N2` (relative stereo) [Example A189, (1R*,2S*)-(E)-2-(3-(4-(4-isopropylpiperazin-1-yl)styryl)-1H-indazol-6-yl)-5′-methoxyspiro[cyclopropane-1,3′-indolin]-2′-one 2,2,2-trifluoroacetate], the inhibition (commonly the percentage by which the read-out fell short of the control) at 1 µM was greater than 50%.
For the compound `COc1ccc2c(c1)[C@]1(C[C@H]1c1ccc3c(/C=C/c4cccc(CN(C)C)c4)n[nH]c3c1)C(=O)N2` (relative stereo) [Example A135, (1R*,2S*)-2-(3-(3-((dimethylamino)methyl)styryl)-1H-indazol-6-yl)-5′-methoxyspiro[cyclopropane-1,3′-indolin]-2′-one 2,2,2-trifluoroacetate], the inhibition at 1 µM is greater than 50%.
With `COc1ccc2c(c1)[C@]1(C[C@H]1c1ccc3c(-c4ccc(N5CCNCC5)cc4)n[nH]c3c1)C(=O)N2C` [Example A101, (1R,2S)-5′-methoxy-1′-methyl-2-(3-(4-(piperazin-1-yl)phenyl)-1H-indazol-6-yl)spiro[cyclopropane-1,3′-indolin]-2′-one 2,2,2-trifluoroacetate] the figure was less than 50%; with `O=C1Nc2ccccc2[C@]12C[C@H]2c1ccc2c(I)n[nH]c2c1` (relative stereo) [Example A9, (1R*,2S*)-2-(3-iodo-1H-indazol-6-yl)spiro[cyclopropane-1,3′-indolin]-2′-one], less than 50%.
To `COc1ccc2c(c1)[C@]1(C[C@H]1c1ccc3c(/C=C/c4csc(CN(C)C)c4)n[nH]c3c1)C(=O)N2` (relative stereo) [Example A181, (1R*,2S*)-2-(3-4E)-2-(5-((dimethylamino)methyl)thiophen-3-yl)vinyl)-1H-indazol-6-yl)-5′-methoxyspiro[cyclopropane-1,3′-indolin]-2′-one 2,2,2-trifluoroacetate] belongs greater than 50%.
For `CN(C)Cc1ccc(/C=C/c2n[nH]c3cc([C@@H]4C[C@@]45C(=O)N(C)c4ccccc45)ccc23)cc1` [Example A109, (1R,2S)-(E)-2-(3-(4-((dimethylamino)methyl)styryl)-1H-indazol-6-yl)-1′-methylspiro[cyclopropane-1,3′-indolin]-2′-one 2,2,2-trifluoroacetate], the inhibition at 1 µM was greater than 50%.
`CCN(CC)Cc1c(F)cc(/C=C/c2n[nH]c3cc([C@@H]4C[C@@]45C(=O)Nc4ccccc45)ccc23)cc1F` [Example A221, (1R,2S)-(E)-2-(3-(4-((diethylamino)methyl)-3,5-difluorostyryl)-1H-indazol-6-yl)spiro[cyclopropane-1,3′-indolin]-2′-one 2,2,2-trifluoroacetate] yielded an inhibition at 1 µM greater than 50%.
To `COc1ccc2c(c1)[C@]1(C[C@H]1c1ccc3c(/C=C/c4ccncc4)n[nH]c3c1)C(=O)N2` [Example A111, (1R,2S)-5′-methoxy-2-(3-((E)-2-(pyridin-4-yl)vinyl)-1H-indazol-6-yl)spiro[cyclopropane-1,3′-indolin]-2′-one 2,2,2-trifluoroacetate] belongs greater than 50%; to `O=C1Nc2ccccc2[C@]12C[C@H]2c1ccc2c(/C=C/c3ccc(CN4CCOCC4)c(F)c3)n[nH]c2c1` [Example A200, (1R,2S)-(E)-2-(3-(3-fluoro-4-(morpholinomethyl)styryl)-1H-indazol-6-yl)spiro[cyclopropane-1,3′-indolin]-2′-one 2,2,2-trifluoroacetate], greater than 50%.
`COc1ccc2c(c1)[C@]1(C[C@H]1c1ccc3c(-c4ccc5nccn5c4)n[nH]c3c1)C(=O)N2` [Example A107, (1R,2S)-2-(3-(imidazo[1,2-a]pyridin-6-yl)-1H-indazol-6-yl)-5′-methoxyspiro[cyclopropane-1,3′-indolin]-2′-one 2,2,2-trifluoroacetate]: the inhibition at 1 µM was less than 50%.
To `COc1ccc2c(c1)[C@]1(C[C@H]1c1ccc3c(-c4ccc(OCCn5ccnc5)cc4)n[nH]c3c1)C(=O)N2` [Example A108, (1R,2S)-2-(3-(4-(2-(1H-imidazol-1-yl)ethoxy)phenyl)-1H-indazol-6-yl)-5′-methoxyspiro[cyclopropane-1,3′-indolin]-2′-one 2,2,2-trifluoroacetate] belongs less than 50%; to `CCN1CCN(c2ccc(-c3n[nH]c4cc([C@@H]5C[C@@]56C(=O)Nc5ccc(OC)cc56)ccc34)cc2)CC1` [Example A99, (1R,2S)-2-(3-(4-(4-ethylpiperazin-1-yl)phenyl)-1H-indazol-6-yl)-5′-methoxyspiro[cyclopropane-1,3′-indolin]-2′-one 2,2,2-trifluoroacetate], less than 50%.
Compound `COc1ccc2c(c1)[C@]1(C[C@H]1c1ccc3c(/C=C/c4ccc(CN5CCCCC5)cc4)n[nH]c3c1)C(=O)N2` [Example A59, (1R,2S)-(E)-5′-methoxy-2-(3-(4-(piperidin-1-ylmethyl)styryl)-1H-indazol-6-yl)spiro[cyclopropane-1,3′-indolin]-2′-one 2,2,2-trifluoroacetate salt] returned an inhibition at 1 µM greater than 50%.
With `O=C1Nc2ccccc2[C@]12C[C@H]2c1ccc2c(/C=C/c3ccc(CN4CCCCC4)cc3)n[nH]c2c1` (relative stereo) [Example A57, (1R*,2S*)-(E)-2-(3-(4-(piperidin-1-ylmethyl)styryl)-1H-indazol-6-yl)spiro[cyclopropane-1,3′-indolin]-2′-one 2,2,2-trifluoroacetate] the figure was greater than 50%.
To `COc1ccc2c(c1)[C@]1(C[C@H]1c1ccc3c(/C=C/c4cc(F)c(CN5CCOCC5)c(F)c4)n[nH]c3c1)C(=O)N2` [Example A218, (1R,2S)-(E)-2-(3-(3,5-difluoro-4-(morpholinomethyl)styryl)-1H-indazol-6-yl)-5′-methoxyspiro[cyclopropane-1,3′-indolin]-2′-one 2,2,2-trifluoroacetate] belongs greater than 50%; to `COCCN1C(=O)[C@@]2(C[C@H]2c2ccc3c(/C=C/c4ccc(CN(C)C)cc4)n[nH]c3c2)c2ccccc21` [Example A131, (1R,2S)-(E)-2-(3-(4-((dimethylamino)methyl)styryl)-1H-indazol-6-yl)-1′-(2-methoxyethyl)spiro[cyclopropane-1,3′-indolin]-2′-one 2,2,2-trifluoroacetate], greater than 50%.
With `Cc1ccc(/C=C/c2n[nH]c3cc([C@@H]4C[C@@]45C(=O)Nc4ccccc45)ccc23)c(C)n1` (relative stereo) [Example A158, (1R*,2S*)-2-(3-((E)-2-(2,6-dimethylpyridin-3-yl)vinyl)-1H-indazol-6-yl)spiro[cyclopropane-1,3′-indolin]-2′-one] the figure was greater than 50%; with `O=C1Nc2ccccc2[C@]12C[C@H]2c1ccc2c(I)n[nH]c2c1` [Example A10, (1R,2S)-2-(3-iodo-1H-indazol-6-yl)spiro[cyclopropane-1,3′-indolin]-2′-one], less than 50%; with `COc1ccc2c(c1)[C@]1(C[C@H]1c1ccc3c(/C=C/c4ccc(CN5CC[C@@H](F)C5)cc4)n[nH]c3c1)C(=O)N2` [Example A112, (1R,2S)-(E)-2-(3-(4-(((R)-3-fluoropyrrolidin-1-yl)methyl)styryl)-1H-indazol-6-yl)-5′-methoxyspiro[cyclopropane-1,3′-indolin]-2′-one 2,2,2-trifluoroacetate], greater than 50%.
On to `CC(C)CCN1C(=O)[C@@]2(C[C@H]2c2ccc3c(/C=C/c4ccc(CN(C)C)cc4)n[nH]c3c2)c2ccccc21` (relative stereo) [Example A176, (1R*,2S*)-(E)-2-(3-(4-((dimethylamino)methyl)styryl)-1H-indazol-6-yl)-1′-isopentylspiro[cyclopropane-1,3′-indolin]-2′-one], for which the inhibition at 1 µM was greater than 50%.
To `COc1ccc2c(c1)[C@]1(C[C@H]1c1ccc3c(/C=C/c4cccnc4)n[nH]c3c1)C(=O)N2` [Example A197, (1R,2S)-5′-methoxy-2-(3-((E)-2-(pyridin-3-yl)vinyl)-1H-indazol-6-yl)spiro[cyclopropane-1,3′-indolin]-2′-one] belongs greater than 50%.
To `O=C1Nc2ccccc2[C@]12C[C@H]2c1ccc2c(/C=C/c3csc(CN4CCOCC4)c3)n[nH]c2c1` [Example A202, (1R,2S)-2-(3-((E)-2-(5-(morpholinomethyl)thiophen-3-yl)vinyl)-1H-indazol-6-yl)spiro[cyclopropane-1,3′-indolin]-2′-one 2,2,2-trifluoroacetate] belongs greater than 50%; to `O=C1Nc2ccccc2[C@]12C[C@H]2c1ccc2c(/C=C/c3ccc(N4CCNCC4)cc3)n[nH]c2c1` [Example A92, (1R,2S)-(E)-2-(3-(4-(piperazin-1-yl)styryl)-1H-indazol-6-yl)spiro[cyclopropane-1,3′-indolin]-2′-one bis(2,2,2-trifluoroacetate)], greater than 50%; to `CN(C)Cc1ccc(/C=C/c2n[nH]c3cc([C@@H]4C[C@@]45C(=O)Nc4ccc(F)cc45)ccc23)cc1` (relative stereo) [Example A208, (1R*,2S*)-(E)-2-(3-(4-((dimethylamino)methyl)styryl)-1H-indazol-6-yl)-5′-flurorospiro[cyclopropane-1,3′-indolin]-2′-one 2,2,2-trifluoroacetate], greater than 50%.
`COc1ccc2c(c1)[C@]1(C[C@H]1c1ccc3c(/C=C/c4ccc5c(c4)CNCC5)n[nH]c3c1)C(=O)N2` [Example A66, (1R,2S)-5′-methoxy-2-(3-((E)-2-(1,2,3,4-tetrahydroisoquinolin-7-yl)vinyl)-1H-indazol-6-yl)spiro[cyclopropane-1,3′-indolin]-2′-one 2,2,2-trifluoroacetate salt] displayed an inhibition at 1 µM greater than 50%.
With `COc1ccc2c(c1)[C@]1(C[C@H]1c1ccc3c(/C=C/c4ccc(CN5CCCC5)cc4)n[nH]c3c1)C(=O)N2` [Example A83, (1R,2S)-(E)-5′-methoxy-2-(3-(4-(pyrrolidin-1-ylmethyl)styryl)-1H-indazol-6-yl)spiro[cyclopropane-1,3′-indolin]-2′-one 2,2,2-trifluoroacetate] the figure was greater than 50%.
